Reference: ChEMBL document CHEMBL5726154, “Substituted heterocyclic derivative, preparation method and use thereof” (2019)
pIC50: −log10 of the molar value.

Molecular target: T1, N-acylethanolamine-hydrolyzing acid amidase (Homo sapiens, UniProt Q02083)
T1 sequence (Q02083 whole entry): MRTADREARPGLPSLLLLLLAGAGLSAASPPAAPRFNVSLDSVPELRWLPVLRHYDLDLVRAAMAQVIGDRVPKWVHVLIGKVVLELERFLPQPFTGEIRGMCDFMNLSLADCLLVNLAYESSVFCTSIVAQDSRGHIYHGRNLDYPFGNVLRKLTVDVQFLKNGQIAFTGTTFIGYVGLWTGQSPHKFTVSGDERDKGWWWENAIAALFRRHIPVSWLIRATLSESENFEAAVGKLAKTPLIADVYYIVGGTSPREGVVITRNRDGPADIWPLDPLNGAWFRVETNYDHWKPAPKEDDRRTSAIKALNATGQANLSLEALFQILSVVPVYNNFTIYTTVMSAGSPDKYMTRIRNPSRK
Experiment: Determining Endocannabinoid Hydrolase Activity: In the Experimental example, endocannabinoid hydrolases used were Fatty Acid Amide Hydrolase (FAAH) and N-acylethanolamide hydrolyzing acid amidase (NAAA), which were prepared by the method described in the document (PMCID: PMC3423427, PMC3723234, PMC2692831, PMC3382457). The preparation method was as followed: a plasmid (pCDNA3.1/NAAA or pCDNA3.1/FAAH) carrying a whole NAAA/FAAH gene was constructed, wherein the plasmid carried Cytomegalovirus (CMV) promoter and Neomycin selectable gene; the plasmid was transformed into HEK-293 cell via lipid medium, stable cell lines expressing NAAA/FAAH at a high level were obtained by G418 screening and Western-blot method. HEK-293 recombinant cells were cultured and collected, washed with PBS for 2-3 times, and ultrasonically treated in 20 mM Tris-HCl containing 0.32 M sucrose, then repeatedly frozen and thawed twice, and then centrifuged at 4° C., 800 g for 15 min. The supernatant (i.e., the desired protein) was collected, the protein concentration was determined by BCA method, and the protein was diluted to a concentration of 1 mg/mL, and sub-packaged and stored in a refrigerator at −80° C. for further use.In the Experimental example, PBS solution used was prepared as followed: 8 g NaCl, 0.2 g KCl, 1.44 g Na2HPO4, and 0.24 g KH2PO4 were dissolved in 1 L ultrapure water, and the resultant solution was subjected to moist heat sterilization and stored at 4° C.30 μL (1 mg/mL) endocannabinoid hydrolase was added to a sample vial, and 2 μL DMSO (Blank control group) or a different concentration of a test compound (Compounds 1-46 prepared in the Examples according to the invention) was further added. The reaction was carried out at 37° C. for 10 min. 170 μL buffer (the buffer consisted of 50 mM disodium Hydrogen Phosphate, 0.1% Triton X-100, 3 mM DTT, 150 μL) containing enzymatic hydrolysis substrate (the substrate was a heptadecenoyl ethanolamine containing a double bond and 17 carbon atoms, abbreviated as 17:1 FAE) was further added, wherein the concentration of 17:1 FAE was 5 μM. The reaction was carried out at 37° C. for 30 min, and 200 μL methanol solution containing internal standard (the internal standard was margaric acid, at a concentration of 1 nmol) was then added to stop the reaction. LC-MS was used to determine the yield of the hydrolysate 17:1 FA (i.e., a heptadecenoic acid containing a double bond) of 17:1 FAE, then a graph was plotted with Graphpad Prism 5. Thereby, the IC50 of the test compound on endocannabinoid hydrolase was determined.By the method above, the inhibitory effects of the Compounds 1-46 prepared in the invention on NAAA and FAAH were determined.

SMILES	pIC50
O=C(CCCCCc1ccc(Cl)cc1)N1CCOC1=O	5.29
O=C1OCCN1C(=O)c1ccc(OCc2ccccc2)cc1	5.47
CCCCCCCCCCCCCCCC(=O)N1CCNC1=O	5.27
O=C(CCCCCC1CCCCC1)N1CCOC1=O	6.74
O=C(CCCCCc1ccc2cc(F)ccc2c1)N1CCOC1=O	5.24
O=C(CCCCCc1c[nH]c2ccccc12)N1CCOC1=O	4.63
O=C(CCCCCc1ccoc1)N1CCOC1=O	6.44
O=C(CCCCc1ccccc1)N1CCOC1=O	4.95
O=C(CCCCc1ccc(F)cc1)N1CCOC1=O	6.07
O=C(CCCCc1cccc(Cl)c1)N1CCOC1=O	6.43
O=C1OCCN1C(=O)c1cccc(-c2ccccc2)c1	5.02
O=C(CCCCCCCc1ccccc1)N1CCOC1=O	4.68
C[C@@H]1COC(=O)N1C(=O)CCCCCc1ccccc1	6.04
O=C(CCCCCc1ccc2ccccc2c1)N1CCOC1=O	6.04
O=C(CCCCCCc1ccccc1)N1CCOC1=O	5.03
O=C(CCCCCc1cccc(F)c1)N1CCOC1=O	6.60
CC(=O)C[C@@H]1COC(=O)N1C(=O)CCCCCc1ccc(C)cc1	6.35
O=C1OCCN1C(=O)c1cccc(OCc2ccccc2)c1	4.10
CCCCCCCCCCCCCCCC(=O)N1CCOC1=O	4.33
O=C(CCCCCc1ccsc1)N1CCOC1=O	6.47
CC(=O)C[C@@H]1COC(=O)N1C(=O)CCCCCc1cccc(C)c1	6.42
O=C(CCCCCCc1ccc(Cl)cc1Cl)N1CCOC1=O	5.66
O=C(CCCCCC1CCCNC1)N1CCOC1=O (stereo not given)	6.89
O=C1OCCN1C(=O)c1ccc(Oc2cccc(Cl)c2)cc1	6.43
O=C(CCCCCc1ccccc1)N1CCOC1=O	6.68
